Measured values as given in ChEMBL document CHEMBL3045805, “Synthesis, characterization, and antimicrobial activity of some new coumarin derivatives” (Med Chem Res, 2012).
In brackets after ≈: the same amount, converted by molar mass.

Columns and labels:
[1] = tested on: Klebsiella pneumoniae; assay: Antibacterial activity against Klebsiella pneumoniae at 50 ug/ml after 24 hr by agar diffusion method; format: functional; settings: read-out: DIZ
[2] = tested on: Escherichia coli; assay: Antibacterial activity against Escherichia coli after 24 hr; format: functional
[3] = tested on: Escherichia coli; assay: Antibacterial activity against Escherichia coli at 50 ug/ml after 24 hr by agar diffusion method; format: functional; settings: read-out: DIZ
[4] = tested on: Klebsiella pneumoniae; assay: Antibacterial activity against Klebsiella pneumoniae after 24 hr; format: functional
[5] = tested on: Staphylococcus aureus; assay: Antibacterial activity against Staphylococcus aureus after 24 hr; format: functional
[6] = tested on: Staphylococcus aureus; assay: Antibacterial activity against Staphylococcus aureus at 50 ug/ml after 24 hr by agar diffusion method; format: functional; settings: read-out: DIZ
[7] = tested on: Klebsiella pneumoniae; assay: Antibacterial activity against Klebsiella pneumoniae at 1 ug/ml after 24 hr by agar diffusion method; settings: read-out: DIZ
[8] = tested on: Staphylococcus aureus; assay: Antibacterial activity against Staphylococcus aureus at 1 ug/ml after 24 hr by agar diffusion method; settings: read-out: DIZ

Row | SMILES | MIC [2] | MIC [4] | MIC [5] | zone of inhibition at 50 µg/mL [1] | zone of inhibition at 50 µg/mL [3] | zone of inhibition at 50 µg/mL [6] | zone of inhibition at 1 µg/mL [7] | zone of inhibition at 1 µg/mL [8]
1 | CCOC(=O)c1oc2cc(OC)ccc2c1CNc1ccc2c(C)cc(=O)oc2c1 | 51.6 µg/mL (≈ 127 µM) | 25.8 µg/mL (≈ 63.3 µM) | > 100 µg/mL | 14 mm | 11 mm | 11 mm | – | –
2 | Cc1cc(=O)oc2cc(OCC(=O)NNS(=O)(=O)c3ccc(Br)cc3)ccc12 | 42.6 µg/mL (≈ 91.2 µM) | 42.6 µg/mL (≈ 91.2 µM) | 85.1 µg/mL (≈ 182 µM) | 11 mm | 12 mm | 14 mm | – | –
3 | Cc1cc(=O)oc2cc(OCC(=O)NNS(=O)(=O)c3cccc([N+](=O)[O-])c3)ccc12 | 26 µg/mL (≈ 60 µM) | 52 µg/mL (≈ 120 µM) | > 100 µg/mL | 14 mm | 13 mm | 10 mm | – | –
4 | Cc1cc(=O)oc2cc(OCC(=O)NNc3ccnc4c(Cl)cccc34)ccc12 | 28.9 µg/mL (≈ 70.5 µM) | 57.8 µg/mL (≈ 141 µM) | > 100 µg/mL | 13 mm | 13 mm | 10 mm | – | –
5 | O=C(O)c1cn(C2CC2)c2cc(N3CCNCC3)c(F)cc2c1=O [CIPROFLOXACIN] | 0.6 µg/mL (≈ 1.81 µM) | 1.3 µg/mL (≈ 3.92 µM) | 0.6 µg/mL (≈ 1.81 µM) | – | – | – | 20 mm | 24 mm

Continued by falling MIC [2], values first:

Row | MIC [2] | MIC [4] | MIC [5] | SMILES | zone of inhibition at 50 µg/mL [1] | zone of inhibition at 50 µg/mL [3] | zone of inhibition at 50 µg/mL [6] | zone of inhibition at 1 µg/mL [7] | zone of inhibition at 1 µg/mL [8]
6 | 98.4 µg/mL (≈ 245 µM) | 49.2 µg/mL (≈ 122 µM) | 98.4 µg/mL (≈ 245 µM) | Cc1ccc(S(=O)(=O)NNC(=O)COc2ccc3c(C)cc(=O)oc3c2)cc1 | 10 mm | 11 mm | 10 mm | – | –
7 | 55.3 µg/mL (≈ 131 µM) | 27.7 µg/mL (≈ 65.5 µM) | > 100 µg/mL | Cc1cc(=O)oc2cc(OCC(=O)NNS(=O)(=O)c3ccc(Cl)cc3)ccc12 | 10 mm | 12 mm | 9 mm | – | –
8 | 46.4 µg/mL (≈ 105 µM) | 46.4 µg/mL (≈ 105 µM) | 92.8 µg/mL (≈ 210 µM) | COc1ccc2c(CNc3ccc4c(C)cc(=O)oc4c3)c(Br)c(=O)oc2c1 | 14 mm | 11 mm | 10 mm | – | –
9 | 45.9 µg/mL (≈ 126 µM) | 22.9 µg/mL (≈ 63 µM) | 91.9 µg/mL (≈ 253 µM) | COc1ccc2c(CNc3ccc4c(C)cc(=O)oc4c3)cc(=O)oc2c1 | 20 mm | 12 mm | 10 mm | – | –
10 | 44.5 µg/mL (≈ 97.5 µM) | 44.5 µg/mL (≈ 97.5 µM) | 89.1 µg/mL (≈ 195 µM) | Cc1cc(=O)oc2cc(OCC(=O)NNS(=O)(=O)c3ccc(C(F)(F)F)cc3)ccc12 | 15 mm | 13 mm | 11 mm | – | –
11 | 24.1 µg/mL (≈ 59.3 µM) | 48.3 µg/mL (≈ 119 µM) | 96.6 µg/mL (≈ 238 µM) | Cc1cc(=O)oc2cc(OCC(=O)NNS(=O)(=O)c3ccc(F)cc3)ccc12 | 12 mm | 12 mm | 9 mm | – | –
